Data from ChEMBL document CHEMBL5678818, “Discovery of potent SOS1 inhibitors that block RAS activation via disruption of the RAS-SOS1 interaction” (Proc Natl Acad Sci U S A, 2019).

Legend:
[1] = target: T1, Mitogen-activated protein kinase 12 (Homo sapiens) (UniProt P53778); assay: Inhibition of p38-gamma (unknown origin) assessed as residual activity at 1000 nM by KINOMEscan analysis relative to control
T1 sequence (whole entry): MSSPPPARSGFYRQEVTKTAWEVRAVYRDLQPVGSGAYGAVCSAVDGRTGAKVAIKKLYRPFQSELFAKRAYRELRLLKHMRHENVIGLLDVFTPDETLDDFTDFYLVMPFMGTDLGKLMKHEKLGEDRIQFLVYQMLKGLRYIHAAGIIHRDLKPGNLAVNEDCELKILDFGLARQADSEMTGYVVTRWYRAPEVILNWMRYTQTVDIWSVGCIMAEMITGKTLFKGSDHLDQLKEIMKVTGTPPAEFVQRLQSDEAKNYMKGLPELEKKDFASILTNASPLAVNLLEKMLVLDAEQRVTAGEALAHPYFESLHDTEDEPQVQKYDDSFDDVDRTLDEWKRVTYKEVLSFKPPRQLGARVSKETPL

[2] = target: T2, Phosphatidylinositol 4,5-bisphosphate 3-kinase catalytic subunit delta isoform (Homo sapiens) (UniProt O00329); assay: Inhibition of PIK3CD (unknown origin) assessed as residual activity at 1000 nM by KINOMEscan analysis relative to control
T2 sequence (whole entry): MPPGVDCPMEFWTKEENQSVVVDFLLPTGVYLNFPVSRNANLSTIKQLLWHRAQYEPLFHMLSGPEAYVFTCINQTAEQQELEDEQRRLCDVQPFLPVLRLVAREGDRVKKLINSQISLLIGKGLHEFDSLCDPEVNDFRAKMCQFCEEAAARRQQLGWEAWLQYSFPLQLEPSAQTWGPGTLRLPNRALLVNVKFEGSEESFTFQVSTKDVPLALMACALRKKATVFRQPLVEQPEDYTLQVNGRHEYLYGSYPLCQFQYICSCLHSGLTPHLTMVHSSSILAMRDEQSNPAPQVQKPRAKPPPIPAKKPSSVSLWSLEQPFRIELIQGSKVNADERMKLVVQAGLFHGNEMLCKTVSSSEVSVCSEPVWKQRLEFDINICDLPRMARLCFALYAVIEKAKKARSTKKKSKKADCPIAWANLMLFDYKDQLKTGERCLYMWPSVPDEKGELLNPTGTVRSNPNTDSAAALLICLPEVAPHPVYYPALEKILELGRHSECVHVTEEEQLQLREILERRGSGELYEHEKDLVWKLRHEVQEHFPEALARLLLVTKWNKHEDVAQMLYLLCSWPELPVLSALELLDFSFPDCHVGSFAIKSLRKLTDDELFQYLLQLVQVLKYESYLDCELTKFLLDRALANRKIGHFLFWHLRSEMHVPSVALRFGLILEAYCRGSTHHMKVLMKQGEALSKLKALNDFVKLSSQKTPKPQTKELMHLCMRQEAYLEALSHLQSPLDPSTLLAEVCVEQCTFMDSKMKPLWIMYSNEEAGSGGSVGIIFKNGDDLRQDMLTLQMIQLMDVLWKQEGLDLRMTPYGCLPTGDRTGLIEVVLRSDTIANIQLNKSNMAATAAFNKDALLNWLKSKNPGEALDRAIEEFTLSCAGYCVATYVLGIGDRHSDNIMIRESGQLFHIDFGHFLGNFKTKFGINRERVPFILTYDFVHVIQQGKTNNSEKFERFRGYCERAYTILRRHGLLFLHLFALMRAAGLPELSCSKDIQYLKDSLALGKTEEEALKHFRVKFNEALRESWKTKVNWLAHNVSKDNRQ

[3] = test system: Proto-oncogene tyrosine-protein kinase receptor Ret (Homo sapiens), P07949 [M918T]; assay: Inhibition of RET M918T mutant (unknown origin) assessed as residual activity at 1000 nM by KINOMEscan analysis relative to control
[4] = target: T3, Serine/threonine-protein kinase TAO2 (Homo sapiens) (UniProt Q9UL54); assay: Inhibition of TAOK2 (unknown origin) assessed as residual activity at 1000 nM by KINOMEscan analysis relative to control
T3 sequence (whole entry): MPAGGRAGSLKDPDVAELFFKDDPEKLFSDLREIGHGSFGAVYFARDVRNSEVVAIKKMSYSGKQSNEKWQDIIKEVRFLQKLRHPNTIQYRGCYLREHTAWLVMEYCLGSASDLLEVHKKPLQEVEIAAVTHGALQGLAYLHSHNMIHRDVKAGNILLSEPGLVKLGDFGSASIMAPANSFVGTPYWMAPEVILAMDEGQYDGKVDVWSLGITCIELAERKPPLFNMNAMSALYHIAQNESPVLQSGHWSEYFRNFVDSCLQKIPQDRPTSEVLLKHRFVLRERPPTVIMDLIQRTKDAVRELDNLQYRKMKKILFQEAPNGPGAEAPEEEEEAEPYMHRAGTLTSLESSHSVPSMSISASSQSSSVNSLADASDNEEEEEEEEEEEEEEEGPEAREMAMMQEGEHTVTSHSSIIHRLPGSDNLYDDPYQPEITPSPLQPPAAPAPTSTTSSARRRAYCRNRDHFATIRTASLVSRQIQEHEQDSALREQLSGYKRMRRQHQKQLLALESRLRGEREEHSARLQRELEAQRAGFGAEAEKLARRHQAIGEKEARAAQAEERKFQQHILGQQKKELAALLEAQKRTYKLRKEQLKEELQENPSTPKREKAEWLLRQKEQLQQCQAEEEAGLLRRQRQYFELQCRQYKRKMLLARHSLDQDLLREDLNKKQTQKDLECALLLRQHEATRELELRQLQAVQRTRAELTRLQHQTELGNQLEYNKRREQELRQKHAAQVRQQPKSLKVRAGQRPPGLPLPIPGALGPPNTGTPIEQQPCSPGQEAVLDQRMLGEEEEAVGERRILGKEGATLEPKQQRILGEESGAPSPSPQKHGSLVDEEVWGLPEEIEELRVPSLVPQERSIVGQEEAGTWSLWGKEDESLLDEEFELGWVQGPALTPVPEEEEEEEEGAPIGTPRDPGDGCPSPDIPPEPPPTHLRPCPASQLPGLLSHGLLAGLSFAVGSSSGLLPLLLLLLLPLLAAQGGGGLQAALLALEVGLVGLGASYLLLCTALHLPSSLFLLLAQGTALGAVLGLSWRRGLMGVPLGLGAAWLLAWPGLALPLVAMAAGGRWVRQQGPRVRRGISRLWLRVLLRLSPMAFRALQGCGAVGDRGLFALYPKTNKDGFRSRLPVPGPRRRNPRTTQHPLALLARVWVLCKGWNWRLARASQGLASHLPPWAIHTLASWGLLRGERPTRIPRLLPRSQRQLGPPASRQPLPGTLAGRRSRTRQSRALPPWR

[5] = target: GTPase KRas (Homo sapiens) (UniProt P01116); assay: Stabilization of N-terminal His10-tagged wild-type recombinant human KRAS (1 to 169 residues) expressed in Escherichia coli assessed as change in melting temperature at 100 uM with heating from 25 to 85 degreeC by thermal shift assay

COc1cc2nc(C)nc(N[C@H](C)c3cccc(-c4cn[nH]c4)c3)c2cc1OC
Activity [1]: 52% | Activity [2]: 96% | Activity [3]: 60% | Activity [4]: 78%

COc1cc2ncnc(N[C@H](C)c3cccc4ccccc34)c2cc1OC
ΔTm [5]: -1.1 °C | Activity [1]: 91% | Activity [2]: 68% | Activity [3]: 100% | Activity [4]: 90%

CNCc1ccccc1-c1csc([C@@H](C)Nc2nc(C)nc3cc(OC)c(OC)cc23)c1 [BAY-293]
ΔTm [5]: 0.23 °C
